Experimental data published in patent publication US20140357487A1, “PLANTS HAVING INCREASED TOLERANCE TO HERBICIDES” (BASF SE, priority 2011, published 2014).

What was measured:
[1] = tested on: soybean plants, wild type (transgene none); experiment: Greenhouse testing of soybean plants, wild type; format: in vivo, Glycine max; settings: 5 days after herbicide treatment
Text: (§1) Various methods for the production of stably transformed plants are well known in the art. Coumarone-derivative herbicide tolerant soybean (Glycine max) or corn (Zea mays) plants can be produced by a method described by Olhoft et al. (US patent 2009/0049567). Briefly, HPPD or HST encoding polynucleotides are cloned into a binary vector using standard cloning techniques as described by Sambrook et al. (Molecular cloning (2001) Cold Spring Harbor Laboratory Press). The final vector construct contains an HPPD or HST encoding sequence flanked by a promoter sequence (e.g. the ubiquitin promoter (PcUbi) sequence) and a terminator sequence (e.g. the nopaline synthase terminator (NOS) sequence) and a resistance marker gene cassette (e.g. AHAS) (FIG. 2). Optionally, the HPPD or HST gene can provide the means of selection. Agrobacterium-mediated transformation is used to introduce the DNA into soybean's axillary meristem cells at the primary node of seedling explants. After inoculation and co-cultivation with Agrobacteria, the explants are transferred to shoot induction medium without selection for one week. The explants are subsequently transferred to shoot induction medium with 1-3 μM imazapyr (Arsenal) for 3 weeks to select for transformed cells. Explants with healthy callus/shoot pads at the primary node are then transferred to shoot elongation medium containing 1-3 μM imazapyr until a shoot elongates or the explant dies. After regeneration, transformants are transplanted to soil in small pots, placed in growth chambers (16 hr day/8 hr night; 25° C. day/23° C. night; 65% relative humidity; 130-150 mE m−2 s−1) and subsequently tested for the presence of the T-DNA via Taqman analysis. After a few weeks, healthy, transgenic positive, single copy events are transplanted to larger pots and allowed to grow in the growth chamber. Transformation of corn plants is done by a method described by McElver and Singh (WO 2008/124495). Plant transformation vector constructs containing HPPD or HST sequences are introduced into maize immature embryos via Agrobacterium-mediated transformation. Transformed cells are selected in selection media supplemented with 0.5-1.5 μM imazethapyr for 3-4 weeks. Transgenic plantlets are regenerated on plant regeneration media and rooted afterwards. Transgenic plantlets are subjected to TaqMan analysis for the presence of the transgene before being transplanted to potting mixture and grown to maturity in greenhouse. Arabidopsis thaliana is transformed with HPPD or HST sequences by floral dip method as described by McElver and Singh (WO 2008/124495). Transgenic Arabidopsis plants are subjected to Tag Man analysis for analysis of the number of integration loci. Transformation of Oryza sativa (rice) are done by protoplast transformation as described by Peng et al. (U.S. Pat. No. 6,653,529)
(§2) Transgenic plants expressing heterologous HPPD or HST enzymes are tested for tolerance against coumarone-derivative herbicides in greenhouse experiments.
(§3) For post emergence treatment, the test plants are first grown to a height of 3 to 15 cm, depending on the plant habit, and only then treated with the herbicides. For this purpose, the test plants are either sown directly and grown in the same containers, or they are first grown separately and transplanted into the test containers a few days prior to treatment.
(§4) Depending on the species, the plants are kept at 10-25° C. or 20-35° C. The test period extends over 3 weeks. During this time, the plants are tended and their response to the individual treatments is evaluated. […] Tolerance to coumarone-derivative herbicides can also be assessed in Arabidopsis. In this case transgenic Arabidopsis thaliana plants are assayed for improved tolerance to coumarone-derivative herbicides in 48-well plates. Seeds are surface sterilized by stirring for 5 min in ethanol+water (70+30 by volume), rinsing one time with ethanol+water (70+30 by volume) and two times with a sterile, deionized water. […]

[2] = tested on: transgenic corn plants, Arabidopsis HPPD, event SDM-71884; experiment: Greenhouse testing of transgenic corn plants, Arabidopsis HPPD; format: in vivo, Zea mays; settings: corn SDM-71884, 5 days after herbicide treatment, average of 8 T1
Text: as §1, §2, §3, §4

[3] = tested on: transgenic soybean plants, Glycine Max HPPD, event SDS-10298; experiment: Greenhouse testing of transgenic soybean plants, Glycine Max HPPD; format: in vivo; settings: soybean SDS-10298, 5 days after herbicide treatment, average of 8 T1
Text: as §1, §2, §3, §4

[4] = tested on: transgenic soybean plants, Arabidopsis Q293S, event SDS-10204; experiment: Greenhouse testing of transgenic soybean plants, Arabidopsis Q293S; format: in vivo, Glycine max; settings: soybean SDS-10204, 5 days after herbicide treatment, average of 8 T1
Text: as §1, §2, §3, §4

[5] = tested on: transgenic soybean plants, Arabidopsis I393L L385V, event SDS-9908; experiment: Greenhouse testing of transgenic soybean plants, Arabidopsis I393L L385V; format: in vivo, Glycine max; settings: soybean SDS-9908, 5 days after herbicide treatment, average of 8 T1
Text: as §1, §2, §3, §4

CC1(C)c2cccnc2C(O)=C(c2ccc(Cl)nc2Cl)S1(=O)=O [Inhibitor 2, 7-(2,6-dichloro-3-pyridyl)-5,5-dimethyl-6,6-dioxo-thiopyrano[4,3-b]pyridin-8-ol]
Injury evaluation, scale of 1-100, bleaching phenotype ([1]; 2.5 g/ha): 11
Injury evaluation, scale of 1-100, bleaching phenotype ([1]; 10 g/ha): 17
Injury evaluation, scale of 1-100, bleaching phenotype ([1]; 40 g/ha): 23
Injury evaluation, scale of 1-100, bleaching phenotype ([2]; 2.5 g/ha): 4
Injury evaluation, scale of 1-100, bleaching phenotype ([2]; 10 g/ha): 13
Injury evaluation, scale of 1-100, bleaching phenotype ([2]; 40 g/ha): 4
Injury evaluation, scale of 1-100, bleaching phenotype ([3]; 2.5 g/ha): 4
Injury evaluation, scale of 1-100, bleaching phenotype ([3]; 10 g/ha): 5
Injury evaluation, scale of 1-100, bleaching phenotype ([3]; 40 g/ha): 17
Injury evaluation, scale of 1-100, bleaching phenotype ([4]; 2.5 g/ha): 1
Injury evaluation, scale of 1-100, bleaching phenotype ([4]; 10 g/ha): 4
Injury evaluation, scale of 1-100, bleaching phenotype ([4]; 40 g/ha): 21
Injury evaluation, scale of 1-100, bleaching phenotype ([5]; 2.5 g/ha): 3
Injury evaluation, scale of 1-100, bleaching phenotype ([5]; 10 g/ha): 3
Injury evaluation, scale of 1-100, bleaching phenotype ([5]; 40 g/ha): 5

Cc1c(C(=O)c2cnn(C)c2O)ccc(S(C)(=O)=O)c1C1=NOCC1 [Topramezone, reference compound]
Injury evaluation, scale of 1-100, bleaching phenotype ([1]; 6.25 g/ha): 21
Injury evaluation, scale of 1-100, bleaching phenotype ([1]; 25 g/ha): 22
Injury evaluation, scale of 1-100, bleaching phenotype ([1]; 100 g/ha): 25
Injury evaluation, scale of 1-100, bleaching phenotype ([2]; 6.25 g/ha): 0
Injury evaluation, scale of 1-100, bleaching phenotype ([2]; 25 g/ha): 0
Injury evaluation, scale of 1-100, bleaching phenotype ([2]; 100 g/ha): 1
Injury evaluation, scale of 1-100, bleaching phenotype ([3]; 6.25 g/ha): 7
Injury evaluation, scale of 1-100, bleaching phenotype ([3]; 25 g/ha): 18
Injury evaluation, scale of 1-100, bleaching phenotype ([3]; 100 g/ha): 28
Injury evaluation, scale of 1-100, bleaching phenotype ([4]; 6.25 g/ha): 10
Injury evaluation, scale of 1-100, bleaching phenotype ([4]; 25 g/ha): 17
Injury evaluation, scale of 1-100, bleaching phenotype ([4]; 100 g/ha): 21
Injury evaluation, scale of 1-100, bleaching phenotype ([5]; 6.25 g/ha): 2
Injury evaluation, scale of 1-100, bleaching phenotype ([5]; 25 g/ha): 7
Injury evaluation, scale of 1-100, bleaching phenotype ([5]; 100 g/ha): 14
